Laboratory results reported in ChEMBL document CHEMBL3044869, “Cross-resistance patterns and fitness in fufenozide-resistant diamondback moth, Plutella xylostella (Lepidoptera: Plutellidae)” (2012).
Values after ≈ are worked out from the molar mass of the structure shown.

Columns and labels:
Type in all cases: functional
Plutella xylostella [1] = test: Resistance ratio, ratio of LC50 for third-instar larvae of fufenozide-resistant Plutella xylostella (diamondback moth) to LC50 for third-instar larvae of fufenozide-susceptible Plutella xylostella
Plutella xylostella [2] = test: Insecticidal activity against third-instar larvae of fufenozide-susceptible Plutella xylostella (diamondback moth) assessed as mortality by leaf-dip bioassay method
Plutella xylostella [3] = test: Insecticidal activity against third-instar larvae of fufenozide-resistant Plutella xylostella (diamondback moth) assessed as mortality by leaf-dip bioassay method

Row | SMILES | RatioLC50 (Plutella xylostella [1]) | LC50 (Plutella xylostella [2]) | LC50 (Plutella xylostella [3])
1 | CC[C@H]1CCC[C@H](O[C@H]2CC[C@H](N(C)C)[C@@H](C)O2)[C@@H](C)C(=O)C2=C[C@@H]3[C@@H](C=C(C)[C@@H]4C[C@@H](O[C@@H]5O[C@@H](C)[C@H](OC)[C@@H](OC)[C@H]5OC)C[C@@H]34)[C@@H]2CC(=O)O1.CC[C@H]1CCC[C@H](O[C@H]2CC[C@H](N(C)C)[C@@H](C)O2)[C@@H](C)C(=O)C2=C[C@@H]3[C@@H](C=C[C@@H]4C[C@@H](O[C@@H]5O[C@@H](C)[C@H](OC)[C@@H](OC)[C@H]5OC)C[C@@H]34)[C@@H]2CC(=O)O1 | 2.34 | 0.188 µg/mL | 0.439 µg/mL
2 | CC[C@H](C)[C@H]1O[C@]2(C=C[C@@H]1C)C[C@@H]1C[C@@H](C/C=C(\C)[C@@H](O[C@H]3C[C@H](OC)[C@@H](O[C@H]4C[C@H](OC)[C@@H](O)[C@H](C)O4)[C@H](C)O3)[C@@H](C)/C=C/C=C3\CO[C@@H]4[C@H](O)C(C)=C[C@@H](C(=O)O1)[C@]34O)O2.CO[C@H]1C[C@H](O[C@H]2[C@H](C)O[C@@H](O[C@@H]3/C(C)=C/C[C@@H]4C[C@@H](C[C@]5(C=C[C@H](C)[C@@H](C(C)C)O5)O4)OC(=O)[C@@H]4C=C(C)[C@@H](O)[C@H]5OC/C(=C\C=C\[C@@H]3C)[C@]54O)C[C@@H]2OC)O[C@@H](C)[C@@H]1O [ABAMECTIN] | 7.02 | 1.12 µg/mL | 7.87 µg/mL
3 | CC1(C)[C@H](C=C(Cl)Cl)[C@H]1C(=O)O[C@@H](C#N)c1cccc(Oc2ccccc2)c1 [BETA-CYPERMETHRIN] | 1.35 | 35.2 µg/mL (≈ 84.6 µM) | 47.5 µg/mL (≈ 114 µM)
4 | CCOCn1c(-c2ccc(Cl)cc2)c(C#N)c(Br)c1C(F)(F)F [CHLORFENAPYR] | 1.11 | 2.96 µg/mL (≈ 7.26 µM) | 3.3 µg/mL (≈ 8.1 µM)
5 | CCOP(=S)(OCC)Oc1nc(Cl)c(Cl)cc1Cl [CHLORPYRIFOS] | 1.75 | 122 µg/mL (≈ 349 µM) | 215 µg/mL (≈ 613 µM)
6 | O=C(NC(=O)c1c(F)cccc1F)Nc1ccc(Cl)cc1 [DIFLUBENZURON] | 17.2 | 19.9 µg/mL (≈ 64.1 µM) | 342 µg/mL (≈ 1100 µM)
7 | Cc1cc(C)cc(C(=O)N(NC(=O)c2ccc3c(c2C)OC(C)C3)C(C)(C)C)c1 (centres undefined) [FUXIAN] | 302.8 | 2.23 µg/mL (≈ 5.65 µM) | 676 µg/mL (≈ 1710 µM)
8 | O=C(NC(=O)c1c(F)cccc1F)Nc1cc(Cl)c(OC(F)(F)C(F)F)c(Cl)c1 [HEXAFLUMURON] | 28.7 | 9.56 µg/mL (≈ 20.7 µM) | 274 µg/mL (≈ 594 µM)
9 | CNC(=O)ON=C(C)SC [METHOMYL] | 1.92 | 67.4 µg/mL (≈ 416 µM) | 130 µg/mL (≈ 798 µM)
10 | COc1cccc(C(=O)NN(C(=O)c2cc(C)cc(C)c2)C(C)(C)C)c1C [METHOXYFENOZIDE] | 37.6 | 7.33 µg/mL (≈ 19.9 µM) | 276 µg/mL (≈ 748 µM)
11 | CCOP(=S)(OCC)O/N=C(\C#N)c1ccccc1 [PHOXIM] | 1.58 | 102 µg/mL (≈ 341 µM) | 161 µg/mL (≈ 540 µM)
12 | CC(C)(C)N(NC(=O)c1ccccc1)C(=O)c1ccccc1 [RH-5849] | 10.8 | 10.6 µg/mL (≈ 35.8 µM) | 114 µg/mL (≈ 385 µM)
13 | CCc1ccc(C(=O)NN(C(=O)c2cc(C)cc(C)c2)C(C)(C)C)cc1 [TEBUFENOZIDE] | 27.9 | 12.6 µg/mL (≈ 35.7 µM) | 353 µg/mL (≈ 1000 µM)
